Patent US12012413B2, “Methods of treating painful diabetic peripheral neuropathy” (Tenacia Biotechnology (Hong Kong) Co., Limited, priority 2019, dated 2024)
≈ marks a conversion by molar mass, not a printed value. Read-outs that look alike come from different tables or passages of the source.

Legend:
[1] = tested on: neuropathic pain associated with diabetic peripheral neuropathy; experiment: Randomized, double-blind, placebo-controlled multiple-dose study in subjects with neuropathic pain associated with diabetic peripheral neuropathy; type: in vivo, human
Procedure: A randomized, double-blind, parallel-group, placebo-controlled, multiple-dose study was conducted to assess the efficacy and safety of NYX-2925 in subjects with neuropathic pain associated with diabetic peripheral neuropathy. The study was to evaluate the efficacy of multiple dose levels of NYX-2925 versus placebo in treating the neuropathic pain associated with diabetic peripheral neuropathy. The study was also to assess the effects of multiple dose levels of NYX-2925 versus placebo on pain characteristics, sleep interference, health status, psychological state, and global improvement, and to assess the safety and tolerability of multiple dose levels of NYX-2925. The study was a 6- to 9-week study, including a 1- to 4-week Screening Period, followed by a 4-week double-blind, randomized, placebo-controlled Treatment Period, and a 1-week Follow-Up Period. Subjects with Type 2 diabetes who had been on stable antidiabetic medication for at least 1 month (or had stable glycemic control with diet and exercise alone) and who had been suffering from painful diabetic peripheral neuropathy in the lower extremities for at least 6 months but not more than 10 years were screened for diabetic peripheral neuropathy using the Michigan Neuropathy Screening Instrument and the Masquerading Disorders Tool. […] Subjects were dispensed acetaminophen to be used as rescue medication, and were instructed to take no more than 2 g/daily (one to two 500-mg caplets every 4 to 6 hours as needed) for DPN pain. Beginning immediately after Visit 1, pain intensity and rescue medication use were recorded in the study-issued handheld device daily at bedtime. Subjects entered their average pain intensity, worst pain intensity, pain on walking, and whether rescue medication was used during the past 24 hours. Pain intensity was recorded using an 11-point NRS, with 0 being no pain and 10 being the worst pain imaginable. Every morning upon awakening, subjects completed the Daily Sleep Interference Scale (DSIS) via their study-issued handheld device. Eligible subjects were randomized to receive either NYX-2925 10 mg daily, NYX-2925 50 mg daily, NYX-2925 200 mg daily, or placebo for 4 weeks in a 1:1:1:1 allocation. Investigators and subjects were masked to the randomization allocation. Subjects were dispensed a 2-week supply of investigational product and instructed to take 2 capsules by mouth once daily. Subjects were also re-dispensed acetaminophen to use as rescue medication for DPN pain; instructions not to exceed 2 g/day were reinforced. The appropriate use of rescue medication was assessed by inventory of the returned caplets, as well as by subject interview. Subjects were instructed to continue entering their average pain intensity, worst pain intensity, pain upon walking, and whether they used rescue medication over the past 24 hours into their study-issued handheld devices every night. Every morning upon awakening, subjects completed the DSIS via their study-issued handheld device. Pain diary compliance was reviewed at each study visit by the study staff, and reporting instructions was reinforced. Quantitative sensory testing was done using the Bedside Sensory Testing Kit. The following scales were completed at the Baseline Visit: Brief Pain Inventory for Diabetic Peripheral Neuropathy (BPI-DPN), the Short-Form McGill Pain Questionnaire version 2 (SF-MPQ-2), the Norfolk Quality of Life Questionnaire-Diabetic Neuropathy (QOL-DN), the HADS, the Insomnia Severity Index, and the S-STS. Subjects returned to the clinic at the end of Week 2 for assessment of compliance with study medication, use of rescue medication, and were dispensed the final 2-week supply of investigational product and rescue medication for DPN pain. Pain diary compliance was reviewed by the study staff, and reporting instructions were reinforced. Adverse events were assessed by asking the subjects a non-leading question. Use of concomitant medications was documented. […]

[2] = Solid form conversion / physical stability (XRPD); type: physicochemical; settings: for form conversion in suspension: isopropanol, ethyl acetate, or isopropyl acetate
Procedure: X-ray powder diffraction (XRPD) analysis was carried out on a Stoe Stadi P with Mythen1K detector; Cu-Kα1 radiation; 40 kV and 40 mA tube power; curved Ge monochromator; 0.02° 2θ step size, 12 s step time, 1.5-50.5° 2θ scanning range; detector mode: step scan; 1° 2θ detector step. The sample (about 20 mg) was placed between two acetate foils and clamped in a Stoe transmission sample holder. The sample holder was rotated during the measurement.
X-ray powder diffraction (XRPD) analysis was also carried out on a on a Bruker D8 Advance; Cu-Kα radiation; standard measurement conditions: Bragg-Brentano reflection geometry; 40 kV and 40 mA tube power; LynxEye detector; 0.02° 2θ step size, 37 s step time, 2.5-50.5° 2θ scanning range (about 10 min measurement time. The sample was spread on a silicon single crystal substrate without cavity and flattened to fit to the 0.1 mm depth of the sample holder.
Crystalline, anhydrous Form C material of 3-hydroxy-2-(5-isobutyryl-1-oxo-2,5-diazaspiro[3.4]octan-2-yl)butanamide is not stable in comparison to anhydrous Form A or anhydrous Form B under ambient conditions of temperature and humidity. […] In turn, anhydrous Form A and anhydrous Form B each convert to monohydrate Form MH under the conditions described above.

[3] = Solubility of anhydrous crystalline forms in water and isopropyl acetate at room temperature; type: physicochemical
[4] = 10, 50 or 200 mg by mouth once daily for 4 weeks
[5] = advanced DPN (at least 4 years)
[6] = patients with at least 4 years of DPN duration

CC(C)C(=O)N1CCC[C@]12CN([C@H](C(N)=O)[C@@H](C)O)C2=O [NYX-2925, (2S,3R)-3-hydroxy-2-((R)-5-isobutyryl-1-oxo-2,5-diazaspiro[3.4]octan-2-yl)butanamide]
change in daily sleep interference score from baseline ([1]; 50 mg dose, advanced DPN (at least 4 years), at least at the 2, 3 and 4 week points): Statistical significance | change in average pain (NRS) from baseline ([1]; 50 mg dose, advanced DPN (at least 4 years), at least at the 3 and 4 week points): Statistical significance | change from placebo in average daily pain, baseline to week 4, by duration of painful DPN ([1]; 50 mg dose, groups ≥1 to ≥5 yrs): most significant at ≥4 years | Week 4 change vs. baseline in average daily pain (on 10-point NRS) ([1]; 50 mg once daily, patients with advanced DPN): 1.93 points | Week 4 change vs. placebo in average daily pain (on 10-point NRS) ([1]; 50 mg once daily, patients with advanced DPN, p=0.004): 1.21 points | separation from placebo by dose ([1]; 200 mg and 50 mg doses): meaningful separation from placebo | shape of dose response ([1]; 10, 50 and 200 mg doses): inverted-U-shaped dose response | overall AE profile [1, 4]: comparable to placebo | safety and tolerability [1, 4]: safe and well tolerated | serious adverse events (SAEs) [1, 4]: no SAEs | change in pain on walking (NRS) score from baseline [1, 5]: improvement | change in worst pain from baseline [1, 5]: improvement | most active dose level among the three doses tested (10, 50, 200 mg) ([1]; once daily for 4 weeks): 50 mg | separation from placebo on the primary endpoint (change in average daily pain) ([1]; patients not on a concomitant analgesic (n=148), 10, 50 or 200 mg by mouth once daily for 4 weeks): numeric, but not statistically significant, separation from placebo | pain alleviation ([1]; patients with DPN, after four weeks): meaningful pain alleviation | effects on change in average daily pain vs. placebo ([1]; patients with advanced DPN (DPN for ≥4 years, n=127; post-hoc analysis)): significant effects | insomnia severity (secondary endpoint) [1, 6]: Improvement | pain interference (secondary endpoint) [1, 6]: Improvement | pain severity (secondary endpoint) [1, 6]: Improvement | patient global impression of change (PGI-C) (secondary endpoint) [1, 6]: Improvement | quality of life (secondary endpoint) [1, 6]: Improvement | total pain score (secondary endpoint) [1, 6]: Improvement | effect of concomitant analgesic use on treatment benefit ([1]; patients with or without a concomitant analgesic): does not appear to affect treatment benefit | MMRM change in daily sleep interference ([1]; subjects not using analgesic (n=148), 50 mg dose, at the 3 and 4 week points): significance | separation from placebo on the primary endpoint (change in average daily pain) ([1]; total patient population (n=300), 10, 50 or 200 mg by mouth once daily for 4 weeks): numeric, but not statistically significant, separation from placebo

CC(C)C(=O)N1CCCC12CN(C(C(N)=O)C(C)O)C2=O (centres unmarked) [3-hydroxy-2-(5-isobutyryl-1-oxo-2,5-diazaspiro[3.4]octan-2-yl)butanamide]
physical stability on storage (XRPD) ([2]; about six weeks in a sealed vial at −20° C.): did not crystallize

CC(C)C(=O)N1CCCC12CN(C(C(N)=O)C(C)O)C2=O (centres unmarked) [Form C, 3-hydroxy-2-(5-isobutyryl-1-oxo-2,5-diazaspiro[3.4]octan-2-yl)butanamide]
stability in comparison to anhydrous Form A or anhydrous Form B ([2]; ambient conditions of temperature and humidity): not stable | form conversion in suspension ([2]; temperatures greater than or equal to 75° C.): converts to anhydrous Form B | form conversion in suspension ([2]; temperatures less than or equal to 50° C.): converts to anhydrous Form A

CC(C)C(=O)N1CCCC12CN(C(C(N)=O)C(C)O)C2=O (centres unmarked) [Form B, 3-hydroxy-2-(5-isobutyryl-1-oxo-2,5-diazaspiro[3.4]octan-2-yl)butanamide]
solubility ([3]; isopropyl acetate, organic solvent or mixture, after 10 minutes, 1 hour, and 6 hours at room temperature, read-out: solubility in isopropyl acetate): ~9 mg/mL (≈ 30.3 mM) | solubility at 10 min ([3]; water, after 10 minutes at room temperature): ~54 mg/mL (≈ 182 mM) | solubility at 1 h ([3]; water, after 1 hour at room temperature): ~54 mg/mL (≈ 182 mM) | solubility at 6 h ([3]; water, after 6 hours at room temperature): ~48 mg/mL (≈ 161 mM) | conversion to the monohydrate Form MH in the solid state ([2]; ambient temperature, atmosphere of greater than or equal to 50% relative humidity): readily converts to the monohydrate Form MH

CC(C)C(=O)N1CCCC12CN(C(C(N)=O)C(C)O)C2=O (centres unmarked) [Form A, 3-hydroxy-2-(5-isobutyryl-1-oxo-2,5-diazaspiro[3.4]octan-2-yl)butanamide]
solubility in isopropyl acetate ([3]; after 10 minutes, 1 hour, and 6 hours at room temperature): about 8 mg/mL | solubility ([3]; isopropyl acetate, 22 °C, organic solvent or mixture, room temperature (about 22° C.), read-out: solubility in isopropyl acetate): ~8 mg/mL (≈ 26.9 mM) | solubility ([3]; water, 22 °C, water, room temperature (about 22° C.), read-out: solubility in water): 54 to 55 mg/mL (≈ 182 to 185 mM) | time to convert to the monohydrate Form MH in the solid phase ([2]; ambient temperature, atmosphere of greater than 5% relative humidity): ≤ 3 days
